For 9 compounds, Ki results are on record in patent US6093717A, “Imidazopyridine thrombin inhibitors” (Merck & Co., Inc., priority 1999, dated 2000).

The structures appear in SMILES notation. Counter-ions that a name gives are not always drawn. Bounds are passed on as bounds.

As usually defined, the Ki is the dissociation constant of the complex between target and ligand, obtained from inhibition or displacement.

This assay concerns the target human α-thrombin (Homo sapiens, UniProt P00734). In words: In vitro assay for determining proteinase inhibition: human α-thrombin. The class given is biochemical. The note with it: 25° C., 0.05 M TRIS buffer pH 7.4, 0.15 M NaCl, 0.1% PEG, class symbols, read-out: Inhibitory activity (Ki). How it is done: In Vitro Assay For Determining Proteinase Inhibition
The assays were carried out at 25° C. in 0.05 M TRIS buffer pH 7.4, 0.15 M NaCl, 0.1% PEG. Trypsin assays also contained 1 mM CaCl2.
Concentrations of stock solutions of Z-GPR-afc were determined from measurements of absorbance at 380 nm of the 7-amino-4-trifluoromethyl coumarin produced upon complete hydrolysis of an aliquot of the stock solution by thrombin.
Times required to achieve equilibration between enzyme and inhibitor were determined in control experiments. Initial velocities of product formation in the absence (Vo) or presence of inhibitor (Vi) were measured. Assuming competitive inhibition, and that unity is negligible compared Km /[S], […] (where [S], [I], and e respectively represent the total concentrations, of substrate, inhibitor and enzyme), the equilibrium constant (Ki) for dissociation of the inhibitor from the enzyme can be obtained from the dependence of Vo /Vi on [I] shown in equation 1.
Take `Cc1ccc(NS(=O)(=O)Cc2ccccc2)c(=O)n1CC(=O)NCc1ccc2nccn2c1C` [Example 8, hydrochloride]: the inhibitory constant (Ki) is less than 20 nM. With `Cc1cnc(NCCc2ccccc2)c(=O)n1CC(=O)NCc1ccc2nccn2c1` [Example 1, dihydrochloride], the Ki is greater than 20 nM. For the compound `Cc1cnc(NCCc2ccccn2)c(=O)n1CC(=O)NCc1ccc2nccn2c1C` [Example 7, 3-[2-(2-Pyridyl)ethyleneamino]-6-methyl-1-(4-methyl-5-methylenecarboxamidomethyleneimidazo[1,2-a]pyridinyl)-pyrazinone], the Ki is less than 20 nM.

Consider `Cc1cc2c(c(=O)n1CC(=O)NCc1ccc3nccn3c1C)NC(=O)[C@H](Cc1ccccc1)C2` [Example 9, [R]-7-(4-methyl-5-methylenecarboxamidomethyleneimidazo[1,2-a]pyridinyl)-3-benzyl-6-methyl-2-oxo-1,2,3,4-tetrahydro-1,7-naphthiridin-[7H]-8-one], for which the Ki is less than 20 nM. In the case of `Cc1cnc(NCCc2ccccc2)c(=O)n1CC(=O)NCc1ccn2ccnc2c1` [Example 5, 3-(2-Phenethyleneamino)-6-methyl-1-(6-methylenecarboxamidomethylene-imidazo[1,2-a]pyridinyl)-pyrazinone] it was greater than 20 nM.

For the compound `CC[C@H](C)CC1Cc2cc(C)n(CC(=O)NCc3ccc4nccn4c3C)c(=O)c2NC1=O` (stereo partly drawn) [Example 10, 7-(4-methyl-5-methylenecarboxamidomethyleneimidazo[1,2-a]pyridinyl)-3-[RS]-(2-[S]-methylbutyl)-6-methyl-2-oxo-1,2,3,4-tetrahydro-1,7-naphthiridin-[7H]-8-one], the Ki was less than 20 nM.

Consider `Cc1cc(S(=O)(=O)CC2CCC2)c(N)c(=O)n1CC(=O)NCc1ccc2nccn2c1C` [Example 6, 3-Amino-4-cyclobutylmethylenesulfonyl-6-methyl-1-(4-methyl-5-methylenecarboxamidomethyleneimidazo[1,2-a]pyridinyl)-pyridinone hydrochloride], for which the Ki is less than 20 nM. Take `Cc1cc(CNC(=O)Cn2c(C)cnc(NCCc3ccccc3)c2=O)cn2ccnc12` [Example 3, dihydrochloride]: the Ki was greater than 20 nM. Next, `Cc1cc2nccn2cc1CNC(=O)Cn1c(C)cnc(NCCc2ccccc2)c1=O` [Example 4, dihydrochloride]: greater than 20 nM.
